Measured values as given in patent US11608335B2, “Somatostatin modulators and uses thereof” (CRINETICS PHARMACEUTICALS, INC., priority 2018, dated 2023).
Like-named read-outs stand apart in the source and are kept apart here.

Experiments:
[1] = target: human somatostatin receptor subtype 5 (Homo sapiens, UniProt P35346); assay: cAMP assay for SST5R (inhibition of cAMP via human SST5 receptor)
[2] = target: T1, human somatostatin receptor subtype 2 (Homo sapiens, UniProt P30874); assay: cAMP assay for SST2R (inhibition of cAMP via human SST2 receptor); type: cell-based; conditions: Table B, read-out: SST2 potency
T1 construct: expressed in transfected cells
Text: cAMP Assay Protocol for SST2R:

[3] = read-out: SST5 potency, inhibition of cAMP via human SST5 receptor, Table B

T1 sequence (P30874 whole entry): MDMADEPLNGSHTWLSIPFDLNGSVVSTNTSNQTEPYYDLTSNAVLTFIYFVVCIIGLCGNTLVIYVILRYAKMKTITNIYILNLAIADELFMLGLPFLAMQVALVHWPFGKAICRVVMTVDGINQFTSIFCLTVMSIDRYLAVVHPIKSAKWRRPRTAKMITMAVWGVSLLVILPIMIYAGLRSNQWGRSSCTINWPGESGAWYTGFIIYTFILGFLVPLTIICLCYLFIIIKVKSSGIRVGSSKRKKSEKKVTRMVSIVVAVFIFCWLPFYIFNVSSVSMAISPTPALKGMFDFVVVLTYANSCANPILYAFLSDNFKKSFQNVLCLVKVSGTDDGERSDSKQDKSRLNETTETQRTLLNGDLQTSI
human somatostatin receptor subtype 5, sequence (P35346 whole entry): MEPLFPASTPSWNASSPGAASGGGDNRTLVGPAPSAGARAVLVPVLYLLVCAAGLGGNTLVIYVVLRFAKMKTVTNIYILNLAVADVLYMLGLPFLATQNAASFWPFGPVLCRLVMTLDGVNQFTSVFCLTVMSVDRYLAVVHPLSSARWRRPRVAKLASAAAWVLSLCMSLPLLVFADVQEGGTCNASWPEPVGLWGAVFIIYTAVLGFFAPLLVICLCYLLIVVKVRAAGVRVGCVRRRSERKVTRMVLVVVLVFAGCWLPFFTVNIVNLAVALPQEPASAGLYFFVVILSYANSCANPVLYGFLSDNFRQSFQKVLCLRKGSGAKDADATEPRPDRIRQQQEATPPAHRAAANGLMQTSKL

Row | SMILES | EC50 [1] | Fold selectivity for SST5 vs SST2 ([1]; SST5 over SST2, class symbols) | EC50 [1, 3] | EC50 [2] | Fold selectivity for SST5 vs SST2 ([1]; SST5 over SST2, given as number (comparison compounds))
1 | Cc1ccnc2nc(-c3cncc(-c4cccc(Cl)c4)c3N3CCC(N)CC3)[nH]c12 | > 1000 nM | – | – | 10 to 100 nM | 0.009
2 | Cc1cccc2nc(-c3cncc(-c4ccc(F)c(C(N)=O)c4)c3N3CCC(C)(N)C3)[nH]c12 (centres unmarked) [Compound 2-124, 5-[4-(3-amino-3-methylpyrrolidin-1-yl)-5-(4-methyl-1H-1,3-benzodiazol-2-yl)pyridin-3-yl]-2-fluorobenzamide] | < 10 nM | +++ (+++=≥500) | < 10 nM | 100 to 1000 nM | –
3 | Cc1cc(F)cc2nc(-c3cncc(-c4cc(F)cc(C#N)c4)c3N3CC[C@H](N)C3)[nH]c12 [Compound 2-79, 3-{4-[(3S)-3-aminopyrrolidin-1-yl]-5-(6-fluoro-4-methyl-1H-1,3-benzodiazol-2-yl)pyridin-3-yl}-5-fluorobenzonitrile] | < 10 nM | ++ (++=100 to 499) | < 10 nM | 100 to 1000 nM | –
4 | Cc1cccc2nc(-c3cncc(-c4ccc(F)c(OC(F)(F)F)c4)c3N3CC[C@H](N)C3)[nH]c12 [Compound 2-141, (3S)-1-{3-[4-fluoro-3-(trifluoromethoxy)phenyl]-5-(4-methyl-1H-1,3-benzodiazol-2-yl)pyridin-4-yl}pyrrolidin-3-amine] | < 10 nM | ++ (++=100 to 499) | < 10 nM | 100 to 1000 nM | –
5 | CC1(N)CCN(c2c(-c3ccnc(C#N)c3)cncc2-c2nc3cccc(C(F)(F)F)c3[nH]2)C1 (centres unmarked) [Compound 2-148, 4-(3-amino-3-methylpyrrolidin-1-yl)-5-[4-(trifluoromethyl)-1H-1,3-benzodiazol-2-yl]-[3,4′-bipyridine]-2′-carbonitrile] | < 10 nM | +++ (+++=≥500) | < 10 nM | 100 to 1000 nM | –
6 | CC1(N)CCN(c2c(-c3ccnc(C#N)c3)cncc2-c2nc3cccc(F)c3[nH]2)C1 (centres unmarked) [Compound 2-121, 4-(3-amino-3-methylpyrrolidin-1-yl)-5-(4-fluoro-1H-1,3-benzodiazol-2-yl)-[3,4′-bipyridine]-2′-carbonitrile] | < 10 nM | +++ (+++=≥500) | < 10 nM | 100 to 1000 nM | –
7 | CC1(N)CCN(c2c(-c3ccc4cc[nH]c4c3)cncc2-c2nc3cccc(F)c3[nH]2)C1 (centres unmarked) [Compound 2-29, 1-[3-(4-fluoro-1H-1,3-benzodiazol-2-yl)-5-(1H-indol-6-yl)pyridin-4-yl]-3-methylpyrrolidin-3-amine] | < 10 nM | + (+=10 to 99) | < 10 nM | 100 to 1000 nM | –
8 | CC1(N)CCN(c2c(-c3ccnc(C#N)c3)cncc2-c2nc3cccc(Cl)c3[nH]2)C1 (centres unmarked) [Compound 2-157, 4-(3-amino-3-methylpyrrolidin-1-yl)-5-(4-chloro-1H-1,3-benzodiazol-2-yl)-[3,4′-bipyridine]-2′-carbonitrile] | < 10 nM | +++ (+++=≥500) | < 10 nM | 10 to 100 nM | –
9 | Cc1cccc2c1nc(-c1cncc(-c3ccc(F)c(C#N)c3)c1N1CC[C@H](N)C1)n2C [Compound 2-132, 5-{4-[(3S)-3-aminopyrrolidin-1-yl]-5-(1,4-dimethyl-1H-1,3-benzodiazol-2-yl)pyridin-3-yl}-2-fluorobenzonitrile] | < 10 nM | +++ (+++=≥500) | < 10 nM | > 1000 nM | –

Further lines, results first:

Row | EC50 [1] | Fold selectivity for SST5 vs SST2 ([1]; SST5 over SST2, class symbols) | EC50 [1, 3] | EC50 [2] | Fold selectivity for SST5 vs SST2 ([1]; SST5 over SST2, given as number (comparison compounds)) | SMILES
10 | < 10 nM | ++ (++=100 to 499) | < 10 nM | 10 to 100 nM | – | Cc1cccc2nc(-c3cncc(-c4cc(F)cc(C#N)c4)c3N3CC[C@@](N)(CO)C3)[nH]c12 [Compound 2-135, 3-{4-[(3S)-3-amino-3-(hydroxymethyl)pyrrolidin-1-yl]-5-(4-methyl-1H-1,3-benzodiazol-2-yl)pyridin-3-yl}-5-fluorobenzonitrile]
11 | < 10 nM | ++ (++=100 to 499) | < 10 nM | 100 to 1000 nM | – | N#Cc1cc(-c2cncc(-c3nc4cccc(F)c4[nH]3)c2N2CC[C@H](N)C2)ccc1Cl [Compound 2-39, 5-{4-[(3S)-3-aminopyrrolidin-1-yl]-5-(4-fluoro-1H-1,3-benzodiazol-2-yl)pyridin-3-yl}-2-chlorobenzonitrile]
12 | < 10 nM | +++ (+++=≥500) | < 10 nM | 100 to 1000 nM | – | Cc1ccnc2nc(-c3cncc(-c4cc(F)cc(C#N)c4)c3N3CC[C@](C)(N)C3)[nH]c12 [Compound 2-202, 3-{4-[(3S)-3-amino-3-methylpyrrolidin-1-yl]-5-{7-methyl-1H-imidazo[4,5-b]pyridin-2-yl}pyridin-3-yl}-5-fluorobenzonitrile]
13 | < 10 nM | +++ (+++=≥500) | < 10 nM | 100 to 1000 nM | – | N#Cc1cccc(-c2cncc(-c3nc4cccc(F)c4[nH]3)c2N2CC[C@H](N)C2)c1 [Compound 2-7, 3-{4-[(3S)-3-aminopyrrolidin-1-yl]-5-(4-fluoro-1H-1,3-benzodiazol-2-yl)pyridin-3-yl}benzonitrile]
14 | < 10 nM | +++ (+++=≥500) | < 10 nM | > 1000 nM | – | NCC1CN(c2c(-c3cc(F)cc(Cl)c3)cncc2-c2nc3cc(F)cc(F)c3[nH]2)C1 [Compound 1-39, 1-{1-[3-(3-chloro-5-fluorophenyl)-5-(4,6-difluoro-1H-1,3-benzodiazol-2-yl)pyridin-4-yl]azetidin-3-yl}methanamine]
15 | < 10 nM | ++ (++=100 to 499) | < 10 nM | > 1000 nM | – | N#Cc1cc(F)cc(-c2cncc(-c3nc4ccc(Cl)cc4[nH]3)c2N2CC[C@H](N)C2)c1 [Compound 2-198, 3-{4-[(3S)-3-aminopyrrolidin-1-yl]-5-(6-chloro-1H-1,3-benzodiazol-2-yl)pyridin-3-yl}-5-fluorobenzonitrile]
16 | < 10 nM | ++ (++=100 to 499) | < 10 nM | 100 to 1000 nM | – | CC1(N)CCN(c2c(-c3cc(F)cc(OCC#N)c3)cncc2-c2nc3cccc(F)c3[nH]2)C1 (centres unmarked) [Compound 2-27, 2-{3-[4-(3-amino-3-methylpyrrolidin-1-yl)-5-(4-fluoro-1H-1,3-benzodiazol-2-yl)pyridin-3-yl]-5-fluorophenoxy}acetonitrile]
17 | < 10 nM | +++ (+++=≥500) | < 10 nM | 100 to 1000 nM | – | N#Cc1cccc(-c2cncc(-c3nc4c(F)cccc4[nH]3)c2N2CCC(N)(CO)C2)c1 (centres unmarked) [Compound 2-54, 3-{4-[3-amino-3-(hydroxymethyl)pyrrolidin-1-yl]-5-(4-fluoro-1H-1,3-benzodiazol-2-yl)pyridin-3-yl}benzonitrile]
18 | < 10 nM | +++ (+++=≥500) | < 10 nM | 100 to 1000 nM | – | C[C@]1(N)CCN(c2c(-c3ccnc(C#N)c3)cncc2-c2nc3cccc(Cl)c3[nH]2)C1 [Compound 2-163, 4-[(3S)-3-amino-3-methylpyrrolidin-1-yl]-5-(4-chloro-1H-1,3-benzodiazol-2-yl)-[3,4′-bipyridine]-2′-carbonitrile]
